Results as given in patent US20230286970A1, “NOVEL OXADIAZOLE-BASED SELECTIVE HDAC6 INHIBITORS” (ITALFARMACO S.P.A., priority 2020, published 2023).
pIC50: −log10 of the molar value.

Experiments:
recombinant human HDAC1 = recombinant human HDAC1 (Homo sapiens (Human), UniProt Q13547); experiment: Enzymatic screening, HDAC1 inhibition (fluorogenic FdL_G substrate); format: biochemical
In short: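 Recombinant human HDAC1 inhibition was measured fluorometrically using the FLUOR DE LYS-Green (FdL_G) substrate. Compounds at 8 doses (1% DMSO final) in Tris-HCl pH 8 buffer with NaCl, Tween-20 and glycerol were preincubated in triplicate with enzyme and 1 mg/mL BSA, then given substrate. Developer I plus 2 μM TSA was added, and fluorescence read after 25 minutes in the dark.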

recombinant human HDAC6 = recombinant human HDAC6 (Homo sapiens (Human), UniProt Q9UBN7); experiment: Enzymatic screening, HDAC6 inhibition (fluorogenic FdL_G substrate); format: biochemical
Chain of recombinant human HDAC6 (Q9UBN7 whole entry): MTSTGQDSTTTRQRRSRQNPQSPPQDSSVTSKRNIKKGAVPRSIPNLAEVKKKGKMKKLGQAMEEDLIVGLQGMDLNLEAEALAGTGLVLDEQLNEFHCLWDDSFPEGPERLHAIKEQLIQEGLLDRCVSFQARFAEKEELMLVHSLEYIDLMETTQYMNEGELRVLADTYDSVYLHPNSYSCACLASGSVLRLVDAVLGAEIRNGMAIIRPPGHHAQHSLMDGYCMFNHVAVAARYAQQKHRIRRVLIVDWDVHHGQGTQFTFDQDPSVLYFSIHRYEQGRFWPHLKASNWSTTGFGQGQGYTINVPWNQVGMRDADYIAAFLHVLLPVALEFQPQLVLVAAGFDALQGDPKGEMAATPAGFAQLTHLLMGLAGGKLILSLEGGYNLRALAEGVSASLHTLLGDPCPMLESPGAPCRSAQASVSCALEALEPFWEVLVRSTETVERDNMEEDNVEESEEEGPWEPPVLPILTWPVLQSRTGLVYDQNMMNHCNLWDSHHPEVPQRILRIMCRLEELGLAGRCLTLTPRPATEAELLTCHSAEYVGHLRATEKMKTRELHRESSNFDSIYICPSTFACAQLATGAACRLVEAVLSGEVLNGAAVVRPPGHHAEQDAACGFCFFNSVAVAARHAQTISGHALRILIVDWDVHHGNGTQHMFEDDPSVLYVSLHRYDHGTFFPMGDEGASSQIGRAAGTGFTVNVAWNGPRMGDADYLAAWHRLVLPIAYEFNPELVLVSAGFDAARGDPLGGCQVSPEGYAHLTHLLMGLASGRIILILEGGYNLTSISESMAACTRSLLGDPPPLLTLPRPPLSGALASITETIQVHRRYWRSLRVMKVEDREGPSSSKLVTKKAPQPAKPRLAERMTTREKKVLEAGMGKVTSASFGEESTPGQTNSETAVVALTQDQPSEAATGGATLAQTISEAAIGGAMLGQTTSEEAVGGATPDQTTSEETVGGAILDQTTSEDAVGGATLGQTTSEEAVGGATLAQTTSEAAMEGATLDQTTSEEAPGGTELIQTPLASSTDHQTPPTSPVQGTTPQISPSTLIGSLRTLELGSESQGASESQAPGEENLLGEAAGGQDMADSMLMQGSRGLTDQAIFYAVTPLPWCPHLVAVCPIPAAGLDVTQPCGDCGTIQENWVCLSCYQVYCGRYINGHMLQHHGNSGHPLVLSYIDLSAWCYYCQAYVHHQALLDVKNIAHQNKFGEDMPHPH
In short: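 Enzyme was preincubated with compound (8 doses, triplicate, 1% DMSO) in 25 mM Tris-HCl pH 8, 130 mM NaCl, 0.05% Tween-20, 10% glycerol, with BSA. A FLUOR DE LYS-Green substrate was then added, and fluorescence was read after developer plus 2 μM TSA.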

Chain of recombinant human HDAC1 (Q13547 whole entry): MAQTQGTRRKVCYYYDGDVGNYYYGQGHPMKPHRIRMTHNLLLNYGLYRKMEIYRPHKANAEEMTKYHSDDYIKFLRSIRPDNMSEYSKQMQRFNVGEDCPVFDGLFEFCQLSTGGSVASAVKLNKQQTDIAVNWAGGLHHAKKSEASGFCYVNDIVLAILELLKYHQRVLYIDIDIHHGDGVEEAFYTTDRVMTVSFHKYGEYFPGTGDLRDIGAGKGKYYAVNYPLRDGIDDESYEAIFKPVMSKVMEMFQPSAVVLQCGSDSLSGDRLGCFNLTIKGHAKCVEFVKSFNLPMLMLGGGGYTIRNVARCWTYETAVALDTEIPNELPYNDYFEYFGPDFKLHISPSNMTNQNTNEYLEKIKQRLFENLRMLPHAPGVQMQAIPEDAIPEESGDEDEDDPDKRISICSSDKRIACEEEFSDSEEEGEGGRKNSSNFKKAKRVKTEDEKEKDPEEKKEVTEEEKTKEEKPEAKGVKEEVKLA

| pIC50 (recombinant human HDAC1) | pIC50 (recombinant human HDAC6) | SMILES |
| --- | --- | --- |
| < 3.70 | 7.51 | FC(F)c1nnc(-c2ccc(Cn3cc(-c4cnc5cccnn45)nn3)nc2)o1 [compound 74, 2-(difluoromethyl)-5-(6-((4-(imidazo[1,2-b]pyridazin-3-yl)-1H-1,2,3-triazol-1-yl)methyl)pyridin-3-yl)-1,3,4-oxadiazole] |
| < 3.70 | 7.46 | Nc1ccc(-c2nnn(Cc3ncc(-c4nnc(C(F)F)o4)cn3)n2)cn1 [compound 77, 5-(2-((5-(5-(difluoromethyl)-1,3,4-oxadiazol-2-yl)pyrimidin-2-yl)methyl)-2H-tetrazol-5-yl)pyridin-2-amine] |
| < 3.70 | 7.48 | FC(F)c1nnc(-c2ccc(Cn3nnc(-c4cncc(Br)c4)n3)cc2)o1 [compound 82, 2-(4-((5-(5-bromopyridin-3-yl)-2H-tetrazol-2-yl)methyl)phenyl)-5-(difluoromethyl)-1,3,4-oxadiazole] |
| < 3.70 | 7.48 | O=C1NCCc2ccc(-c3nnn(Cc4ccc(-c5nnc(C(F)F)o5)cc4)n3)cc21 [compound 83, 7-[2-[[4-[5-(difluoromethyl)-1,3,4-oxadiazol-2-yl]phenyl]methyl]tetrazol-5-yl]-3,4-dihydro-2H-isoquinolin-1-one] |
| < 3.70 | 7.48 | FC(F)c1nnc(-c2ccc(Cn3cc(-c4cccs4)nn3)nc2)o1 [compound 85, 2-(difluoromethyl)-5-(6-((4-(thiophen-2-yl)-1H-1,2,3-triazol-1-yl)methyl)pyridin-3-yl)-1,3,4-oxadiazole] |
| < 3.70 | 7.47 | FC(F)c1nnc(-c2ccc(Cn3nnc(-c4ccc(CN5CCCCC5)cc4)n3)cc2)o1 [compound 87, 2-(difluoromethyl)-5-(4-((5-(4-(piperidin-1-ylmethyl)phenyl)-2H-tetrazol-2-yl)methyl)phenyl)-1,3,4-oxadiazole] |
| < 3.70 | 7.46 | CC1(C)CN(c2cccc(-c3cn(Cc4c(F)cc(-c5nnc(C(F)F)o5)cc4F)nn3)c2)C1=O [compound 92, 1-(3-(1-(4-(5-(difluoromethyl)-1,3,4-oxadiazol-2-yl)-2,6-difluorobenzyl)-1H-1,2,3-triazol-4-yl)phenyl)-3,3-dimethylazetidin-2-one] |
| < 3.70 | 7.43 | O=C(Nc1cc(-c2nnn(Cc3c(F)cc(-c4nnc(C(F)F)o4)cc3F)n2)ccc1O)N1CCOCC1 [compound 95, N-(5-(2-(4-(5-(difluoromethyl)-1,3,4-oxadiazol-2-yl)-2,6-difluorobenzyl)-2H-tetrazol-5-yl)-2-hydroxyphenyl)morpholine-4-carboxamide] |
| < 3.70 | 7.43 | O=C(NCc1ccco1)c1cccc(-c2nnn(Cc3ccc(-c4nnc(C(F)F)o4)cc3)n2)c1 [compound 96, 3-(2-(4-(5-(difluoromethyl)-1,3,4-oxadiazol-2-yl)benzyl)-2H-tetrazol-5-yl)-N-(furan-2-ylmethyl)benzamide] |
| < 3.70 | 7.42 | O=C(Nc1cccc(-c2nnn(Cc3c(F)cc(-c4nnc(C(F)F)o4)cc3F)n2)c1)N1CCOCC1 [compound 98, N-(3-(2-(4-(5-(difluoromethyl)-1,3,4-oxadiazol-2-yl)-2,6-difluorobenzyl)-2H-tetrazol-5-yl)phenyl)morpholine-4-carboxamide] |
| < 3.70 | 7.41 | NCc1ccc(-c2nc(Cc3c(F)cc(-c4nnc(C(F)F)o4)cc3F)no2)cc1 [compound 100, (4-(3-(4-(5-(difluoromethyl)-1,3,4-oxadiazol-2-yl)-2,6-difluorobenzyl)-1,2,4-oxadiazol-5-yl)phenyl)methanamine] |
| < 3.70 | 7.41 | NCc1ccc(-c2cn(Cc3c(F)cc(-c4nnc(C(F)F)o4)cc3F)nn2)cn1 [compound 101, (5-(1-(4-(5-(difluoromethyl)-1,3,4-oxadiazol-2-yl)-2,6-difluorobenzyl)-1H-1,2,3-triazol-4-yl)pyridin-2-yl)methanamine] |
| < 3.70 | 7.41 | FC(F)c1nnc(-c2ccc(Cn3nnc(-c4ccc(N5CCNCC5)cc4)n3)cc2)o1 [compound 103, 2-(difluoromethyl)-5-(4-((5-(4-(piperazin-1-yl)phenyl)-2H-tetrazol-2-yl)methyl)phenyl)-1,3,4-oxadiazole] |
| < 3.70 | 7.39 | O=C1NCc2ccc(-c3nnn(Cc4ncc(-c5nnc(C(F)F)o5)cn4)n3)cc21 [compound 107, 6-(2-((5-(5-(difluoromethyl)-1,3,4-oxadiazol-2-yl)pyrimidin-2-yl)methyl)-2H-tetrazol-5-yl)isoindolin-1-one] |
| < 3.70 | 7.38 | O=C1Nc2ccc(-c3nnn(Cc4ccc(-c5nnc(C(F)F)o5)cc4)n3)cc2NC12CCCC2 [compound 110, 7′-(2-(4-(5-(difluoromethyl)-1,3,4-oxadiazol-2-yl)benzyl)-2H-tetrazol-5-yl)-1′,4′-dihydro-3′H-spiro[cyclopentane-1,2′-quinoxalin]-3′-one] |
| < 3.70 | 7.38 | FC(F)c1nnc(-c2ccc(Cn3nnc(-c4cccc(-c5cnn6c5CNCC6)c4)n3)cc2)o1 [compound 111, 2-(difluoromethyl)-5-(4-((5-(3-(4,5,6,7-tetrahydropyrazolo[1,5-a]pyrazin-3-yl)phenyl)-2H-tetrazol-2-yl)methyl)phenyl)-1,3,4-oxadiazole] |
| < 3.70 | 7.38 | O=C(c1cccc(-c2nnn(Cc3c(F)cc(-c4nnc(C(F)F)o4)cc3F)n2)c1)N1CCOCC1 [compound 112, (3-(2-(4-(5-(difluoromethyl)-1,3,4-oxadiazol-2-yl)-2,6-difluorobenzyl)-2H-tetrazol-5-yl)phenyl)(morpholino)methanone] |
| < 3.70 | 7.37 | CCNc1cccc(-c2cn(Cc3c(F)cc(-c4nnc(C(F)F)o4)cc3F)nn2)c1 [compound 114, 3-(1-(4-(5-(difluoromethyl)-1,3,4-oxadiazol-2-yl)-2,6-difluorobenzyl)-1H-1,2,3-triazol-4-yl)-N-ethylaniline] |
| < 3.70 | 7.37 | Cc1ncccc1-c1cn(Cc2ccc(-c3nnc(C(F)F)o3)cn2)nn1 [compound 115, 2-(difluoromethyl)-5-(6-((4-(2-methylpyridin-3-yl)-1H-1,2,3-triazol-1-yl)methyl)pyridin-3-yl)-1,3,4-oxadiazole] |
| < 3.70 | 7.36 | FC(F)c1nnc(-c2ccc(Cn3nnc(-c4cncc5ccccc45)n3)cc2)o1 [compound 118, 2-(difluoromethyl)-5-(4-((5-(isoquinolin-4-yl)-2H-tetrazol-2-yl)methyl)phenyl)-1,3,4-oxadiazole] |
| < 3.70 | 7.35 | O=C(Nc1cccc(-c2cnn(Cc3ccc(-c4nnc(C(F)F)o4)cn3)c2)c1)N1CCOCC1 [compound 119, N-(3-(1-((5-(5-(difluoromethyl)-1,3,4-oxadiazol-2-yl)pyridin-2-yl)methyl)-1H-pyrazol-4-yl)phenyl)morpholine-4-carboxamide] |
| < 3.70 | 7.35 | O=C(c1cccc(-c2nnn(Cc3ccc(-c4nnc(C(F)F)o4)cc3)n2)c1)N1CCOCC1 [compound 120, (3-(2-(4-(5-(difluoromethyl)-1,3,4-oxadiazol-2-yl)benzyl)-2H-tetrazol-5-yl)phenyl)(morpholino)methanone] |
| < 3.70 | 7.35 | Nc1ccc(-c2cn(Cc3ccc(-c4nnc(C(F)F)o4)cc3)nn2)cc1 [compound 121, 4-(1-(4-(5-(difluoromethyl)-1,3,4-oxadiazol-2-yl)benzyl)-1H-1,2,3-triazol-4-yl)aniline] |
| < 3.70 | 7.34 | O=C1Nc2cc(-c3cn(Cc4ccc(-c5nnc(C(F)F)o5)cn4)nn3)ccc2C12CCCC2 [compound 123, 6′-(1-((5-(5-(difluoromethyl)-1,3,4-oxadiazol-2-yl)pyridin-2-yl)methyl)-1H-1,2,3-triazol-4-yl)spiro[cyclopentane-1,3′-indolin]-2′-one] |
| < 3.70 | 7.31 | O=C(Nc1ccc(-c2cn(Cc3ccc(-c4nnc(C(F)F)o4)cn3)cn2)cn1)C(F)F [compound 126, N-(5-(1-((5-(5-(difluoromethyl)-1,3,4-oxadiazol-2-yl)pyridin-2-yl)methyl)-1H-imidazol-4-yl)pyridin-2-yl)-2,2-difluoroacetamide] |
| < 3.70 | 7.31 | FC(F)c1nnc(-c2ccc(Cn3nnc(-c4ccc5ccncc5c4)n3)cc2)o1 [compound 127, 2-(difluoromethyl)-5-(4-((5-(isoquinolin-7-yl)-2H-tetrazol-2-yl)methyl)phenyl)-1,3,4-oxadiazole] |
| < 3.70 | 7.30 | Nc1cccc(-c2nnn(Cc3ccc(-c4nnc(C(F)F)o4)cc3)n2)c1 [compound 129, 3-[2-[[4-[5-(difluoromethyl)-1,3,4-oxadiazol-2-yl]phenyl]methyl]tetrazol-5-yl]aniline] |
| < 3.70 | 7.30 | FC(F)c1nnc(-c2ccc(Cn3nnc(-c4cccc(-c5cnc(N6CCOCC6)s5)c4)n3)nc2)o1 [compound 130, 4-(5-(3-(2-((5-(5-(difluoromethyl)-1,3,4-oxadiazol-2-yl)pyridin-2-yl)methyl)-2H-tetrazol-5-yl)phenyl)thiazol-2-yl)morpholine] |
| < 3.70 | 7.29 | Nc1nc2cc(-c3cn(Cc4ccc(-c5nnc(C(F)F)o5)cc4)nn3)ccc2s1 [compound 132, 5-(1-(4-(5-(difluoromethyl)-1,3,4-oxadiazol-2-yl)benzyl)-1H-1,2,3-triazol-4-yl)benzo[d]thiazol-2-amine] |
| < 3.70 | 7.28 | Nc1ccc(-c2cn(Cc3ccc(-c4nnc(C(F)F)o4)cc3Cl)nn2)cn1 [compound 134, 5-(1-(2-chloro-4-(5-(difluoromethyl)-1,3,4-oxadiazol-2-yl)benzyl)-1H-1,2,3-triazol-4-yl)pyridin-2-amine] |
